Assay in all cases: NCI anticancer screen, dose series, 48 h
Experiment [1] concerns DMS-114.
Experiment [2] relates to HOP-18.
Experiment [3] deals with LXFL 529.
Experiment [4] relates to M19-MEL.
Experiment [5] deals with SNB-78.
Experiment [6] relates to XF498.
Experiment [7] concerns RXF 631.
Experiment [8] deals with BT-549.
Experiment [9] concerns MCF7.

The structures appear in SMILES notation.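 48-hour exposure; five concentrations; linearly interpolated endpoints. At the GI50, growth is halved.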 Calls of active or inactive are those of the source. No stated cut-off is given here; in the data, active = GI50 up to about 1.1 µM and inactive = higher. Where only a bound is given, the exact number is not on record here.

In the case of `O=C1C(Cl)=C(Cl)C(=O)N1c1ccccc1Cl`, the GI50 is > 95.1 µM (inactive) in experiment [1]; > 100 µM (inactive) in experiment [2]; > 53 µM (inactive) in experiment [3]; > 100 µM (inactive) in experiment [4]; > 100 µM (inactive) in experiment [5]; > 100 µM (inactive) in experiment [6].
For `O=C1CCC2(c3ccccc3)Nc3cc(Cl)ccc3N12` (stereo not drawn), the GI50 is 21.4 µM (inactive) in [1]; 31.4 µM (inactive) in experiment [3]; 30.8 µM (inactive) in [4]; 47.5 µM (inactive) in experiment [7]; 31.7 µM (inactive) in experiment [5]; 19.7 µM (inactive) in experiment [6].
`CCOC(=O)C1C(=O)CC(=O)C2CCCCC21` (stereo not drawn): the GI50 in experiment [1], in [3], in [7], in experiment [5] and in [6] was > 100 µM (inactive) throughout.
On to `COc1ccc(/C=C2\CNC/C(=C\c3ccc(OC)cc3)C2=O)cc1`, for which the GI50 is 45.8 µM (inactive) in experiment [1]; > 100 µM (inactive) in experiment [2]; 21.8 µM (inactive) in experiment [3]; > 100 µM (inactive) in experiment [4]; 28.1 µM (inactive) in [5]; 63.2 µM (inactive) in [6].
Consider `ON/N=C/c1cc2c(cc1Br)OCO2`, for which the GI50 in experiment [1] is 251 µM (inactive); in experiment [2], > 386 µM (inactive); in experiment [3], > 386 µM (inactive); in experiment [4], > 386 µM (inactive); in experiment [7], > 386 µM (inactive).
With `O=[N+]([O-])c1cc(/C=N\NS(=O)(=O)c2ccc(Cl)cc2)c(O)c([N+](=O)[O-])c1`, the GI50 in experiment [1] was 31.9 µM (inactive); in experiment [2], 42.3 µM (inactive); in [3] it was 30.6 µM (inactive); in [4], 48.3 µM (inactive); in experiment [7] it was 28.6 µM (inactive); in experiment [5], 38.1 µM (inactive).
For the compound `CC(C)(C)C1CCC2c3c([nH]c4ccccc34)C3C(=O)N(c4ccccc4)C(=O)C3C2C1` (stereo not drawn), the GI50 in [1] is 6.15 µM (inactive); in experiment [2], 4.76 µM (inactive); in experiment [3], 11.3 µM (inactive); in experiment [4], 7.66 µM (inactive); in experiment [5], 5.5 µM (inactive); in [6] it was 0.389 µM (active).
Turning to `COC(=O)N/N=c1\cc(C(=O)Nc2ccc(C)c(C)c2)oc2cc(O)ccc12`, the GI50 in [1], in experiment [2], in experiment [3], in experiment [4], in [7] and in [5] was > 100 µM (inactive) in each case. Moreover, in experiment [6], the GI50 is > 100 µM (inactive).
Consider `N/C(=N\O)N/N=C/c1cccs1`, for which the GI50 in experiment [1] is 54.8 µM (inactive); in experiment [2], 53.8 µM (inactive); in experiment [3], 32.4 µM (inactive); in experiment [4] it was > 100 µM (inactive); in experiment [7], > 100 µM (inactive); in experiment [5] it was > 100 µM (inactive). The GI50 in [6] is 98.9 µM (inactive).
Take `O=C(N/C(=C\c1c(O)ccc2ccccc12)c1nc2ccccc2[nH]1)c1ccccc1`: the GI50 in experiment [1], in [2], in experiment [3], in experiment [4], in experiment [7] and in experiment [5] was > 100 µM (inactive) throughout. For the same compound, the GI50 in [6] was > 100 µM (inactive).
Take `O=C(C[n+]1ccccc1)NNC(=O)/C(=C/c1ccc2c(c1)OCO2)NC(=O)c1ccccc1`: the GI50 in experiment [1] was 25.5 µM (inactive); in [2], 34.9 µM (inactive); in experiment [3], 38.7 µM (inactive); in experiment [4], 41.7 µM (inactive); in [5], > 56.8 µM (inactive); in experiment [6] it was > 41.2 µM (inactive).
For the compound `CCn1c2c(c3ccccc31)C(c1ccccc1)CC1C(=O)N(c3ccccc3)C(=O)C21` (stereo not drawn), the GI50 in experiment [1] was 89.5 µM (inactive); in [3], 42.8 µM (inactive); in experiment [4] it was > 100 µM (inactive); in [5] it was 36.8 µM (inactive); in experiment [6], 15.8 µM (inactive).
With `COc1cc2c(cc1OC)C1(c3ccc(Cl)cc3)ON=C(c3ccccc3)N1CS2` (stereo not drawn), the GI50 in [1] is > 100 µM (inactive); in experiment [2], > 100 µM (inactive); in [3] it was > 100 µM (inactive); in experiment [4], > 100 µM (inactive); in [7] it was > 100 µM (inactive); in [5], 4.56 µM (inactive).
Regarding `C/C(CC(=O)Nc1cccc(Cl)c1C)=N\N=C(N)N`, the GI50 in [1], in experiment [2], in experiment [3], in [4], in experiment [5] and in experiment [6] was > 100 µM (inactive) in each case.
Turning to `Cc1nnc(N/N=C2\C(=O)Nc3ccccc32)n1N`, the GI50 in experiment [1], in experiment [2], in [3], in [4], in experiment [7] and in experiment [5] was > 100 µM (inactive) throughout. In experiment [6], the GI50 was > 100 µM (inactive).
Take `CN(C(=O)C12C3C4C1C1C2C3C41C#N)C(C)(C)C` (stereo not drawn): the GI50 in experiment [1], in experiment [3], in experiment [4], in [7] and in experiment [5] was > 100 µM (inactive) in each case.
On to `CC12CC3CC(C)(C1)CC(N=[N+]=[N-])(C3)C2`, for which the GI50 in experiment [1], in experiment [2], in experiment [3], in [4], in [5] and in experiment [6] was > 100 µM (inactive) in each case.
With `Cc1cc(Br)cc(C)c1NC(=O)C(=O)C(C(=O)c1ccc(Cl)c(Cl)c1)C1OC(=O)c2ccccc21` (stereo not drawn), the GI50 in experiment [1] was 24.3 µM (inactive); in [3], 59.3 µM (inactive); in [4], 75.2 µM (inactive); in [7] it was 29.6 µM (inactive); in experiment [5], 53.3 µM (inactive).
On the same counts, the results for `CN1C(c2ccccc2)CC(=NO)CC1c1ccccc1` (stereo not drawn) are 25.7 µM (inactive), 52.8 µM (inactive), 37.5 µM (inactive), 48.8 µM (inactive) and > 100 µM (inactive).
`O=c1oc2cc(O)ccc2c2[nH]c3cc(O)ccc3c12`: the GI50 in [1] is 21.1 µM (inactive); in experiment [2], 50.5 µM (inactive); in experiment [3], 27.1 µM (inactive); in experiment [4] it was 27.9 µM (inactive); in [5] it was 43.7 µM (inactive); in experiment [6], 25.5 µM (inactive).
With `C#CC1(O)CCC2[C@@H]3CCc4cc(Oc5nc(F)nc(-c6c7ccccc7c(SCC)n6CCC)n5)ccc4C3CC[C@@]21C` (stereo partly drawn), the GI50 in experiment [1] is 31.3 µM (inactive); in [2], 24.2 µM (inactive); in experiment [3] it was 38.5 µM (inactive); in experiment [4] it was > 100 µM (inactive); in experiment [7], > 100 µM (inactive); in experiment [5], > 100 µM (inactive). The GI50 in experiment [6] was > 100 µM (inactive).
As for `CC1=NN(C(=O)c2ccccc2O)C(=O)/C1=C/c1ccco1`, the GI50 was 12.6 µM (inactive) in experiment [8]; 0.604 µM (active) in experiment [1]; 1.54 µM (inactive) in [3]; 1.88 µM (inactive) in experiment [4]; 4.27 µM (inactive) in experiment [9]; 22.6 µM (inactive) in experiment [5]. Besides, the GI50 in [6] was 25.8 µM (inactive).
`C[N+](C)(C)CC1CCCC(C[N+](C)(C)C)C1O` (stereo not drawn): the GI50 in [1], in experiment [2], in experiment [3], in [4], in experiment [7] and in [5] was > 100 µM (inactive) throughout.

Values taken from ChEMBL document CHEMBL1201862, “PubChem BioAssay data set” (2004).
